Legend:
TSPO [1] = target: T1, TSPO (Homo sapiens, UniProt P30536); test: In vitro competition binding assay with ^3H-PK11195 in human brain homogenates (HAB, MAB, LAB); details: for LAB/HAB ratio: human brain homogenates, rs6971 genotyped
Description: (§1) All studies using human tissue were conducted in accordance with the National Health Service Research Ethics Committee South East Scotland (Edinburgh Brain and Tissue Bank, 16/ES/0084). Supplemental Table 1 contains the Brain Bank Network reference number for all tissues used from the Edinburgh Brain and Tissue Bank. […] Samples were homogenized in ×10 w/v buffer (50 mM Tris-Base, pH 7.4, 4°C) before centrifugation (32,000g, 10 min, 4°C). Tissue pellets were then resuspended in ×10 w/v buffer and centrifuged again before resuspending in 2 mL of buffer. Samples were assessed for protein concentration using the Bio-Rad protein assay, aliquoted, and stored at −80°C until use. The competition binding assay protocol was adjusted from a previously reported protocol ([16]), as detailed within the supplemental materials.
(§2) In Vitro Human Competition Binding Assays
(§3) Briefly, 250 µg protein/mL in 200 µl of buffer was added to 100 µl of 1 nM 3H- […]
(§4) Aldrich, USA), PBR28 (ABX, Germany), AB5186 or LW223 at 14 different concentrations (0.001-3000 nM) for 90 min at 4 °C. Binding was terminated with the addition of ice cold buffer before being immediately filtered over a Whatman GF/B filters (Whatman, UK) pre-treated with 0.3% polyethylenimine (Sigma-Aldrich, USA) using a Brandel harvester (Brandel, USA). Filter paper was then removed, placed into 2.5 mL of Optiphase HiSafe 3 (Perkin Elmer, USA) and counted 48 hours later on a Hidex 300 SL (Hidex, Finland).
(§5) All binding assays were performed
(§6) GraphPad Prism version 6 (GraphPad Software, USA) was used to fit all binding affinity curves. A comparison of a one-site and two-site models was made using the least squares algorithm and model selection was compared using an F test. The null hypothesis (one-site fitting as more suitable) was rejected if p<0.05. Normalized mean […]
(§7) saturation binding results, Sup.Fig.2) was used to determine the best fitting model and to calculate LAB:HAB ratios. Affinity values (Ki) were calculated by fitting individual tissue

TSPO [2] = test: In vitro competition binding assay with ^3H-PK11195 in human heart homogenates (HAB, MAB, LAB); details: for Effect of rs6971 genetic polymorphism on Ki: human heart; for LAB/HAB ratio: human heart homogenates, rs6971 genotyped
Description: as §1, §2, §3, §4, §5, §6, §7

TSPO [3] = target: T1, TSPO; test: as above; details: human heart
Description: as §1, §2, §3, §4, §5, §6, §7

[4] = humans; cited from earlier work
TSPO [5] = details: cited from earlier work
[6] = cited from earlier work
TSPO [7] = details: humans; cited from earlier work

T1 sequence (P30536 2-169): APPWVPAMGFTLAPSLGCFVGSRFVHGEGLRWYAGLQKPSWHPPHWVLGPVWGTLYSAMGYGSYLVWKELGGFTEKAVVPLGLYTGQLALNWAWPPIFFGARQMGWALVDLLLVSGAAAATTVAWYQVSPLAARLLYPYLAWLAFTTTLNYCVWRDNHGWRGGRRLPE

Row | Structure (SMILES) | LAB/HAB ratio (TSPO [1]) | Effect of rs6971 genetic polymorphism on Ki (TSPO [2]) | LAB/HAB ratio (TSPO [2]) | VT in the brain (TSPO [5]) | further results
1 | CCN(CC)C(=O)c1nc2ccccc2c(-c2ccccc2)c1CF [AB5186] | 9 | affected | 7 | – | Effect of rs6971 genetic polymorphism on Ki (TSPO [1]; human brain): affected
2 | CC[C@@H](C)N(C)C(=O)c1nc2ccccc2c(-c2ccccc2)c1CF [LW223] | 1 | unaffected | 1 | – | Effect of rs6971 genetic polymorphism on Ki (TSPO [1]; human brain): unaffected; Ki (TSPO [1]; human brain): 0.6 nM; Ki (TSPO [3]): 1.7 nM
3 | COc1ccccc1CN(C(C)=O)c1cnccc1Oc1ccccc1 [PBR28, reference compound] | 48 | affected | 48 | – | –
4 | CC[C@@H](C)N([11CH3])C(=O)c1nc(-c2ccccc2Cl)c2ccccc2n1 [^11C-ER176] | – | – | – | 1.6–3.5 mL/cm^3 | parent free fraction in plasma [4]: 3.3%
5 | CCC(C)N([11CH3])C(=O)c1cc2ccccc2c(-c2ccccc2Cl)n1 (centres unmarked) [^11C-PK11195] | – | – | – | 0.6–0.74 mL/cm^3 | parent free fraction in plasma [4]: 1%; parent in plasma ([6]; same lower species (rat)): ~40%; SUVpeak, heart (TSPO [7]): 5; SUVpeak, lung (TSPO [7]): 3
6 | CN(C(=O)Cn1c(=O)oc2ccc(-c3ccc(OCC[18F])cc3)cc21)c1ccccc1 [^18F-FEBMP] | – | – | – | – | original parent compound found in blood ([6]; rats, 30 min after injection): less than 10%
7 | CCN(CC)C(=O)[C@H]1CCCc2c1c1c(OC)cccc1n2CC[18F] [^18F-GE180, Flutriciclamide] | – | – | – | 0.10–0.28 mL/cm^3 | –
8 | CCN(CC)C(=O)Cc1c(-c2ccc(OCCC[18F])cc2)nc2ccc(Cl)cn12 [^18F-PBR111] | – | – | – | 2.22–4.03 mL/cm^3 | –

From PMC8049364, “Quantification of Macrophage-Driven Inflammation During Myocardial Infarction with ^18F-LW223, a Novel TSPO Radiotracer with Binding Independent of the rs6971 Human Polymorphism” (Journal of Nuclear Medicine, 2021)
